# Measurements taken from patent publication US11225505B2, “Antimicrobial polymyxin derivative compounds” (MONASH UNIVERSITY, priority 2015, dated 2022).
# Where a SMILES comes first, the peptide text is derived from it. Bridges are numbered along the chain shown (N, C = ends). [ ]: non-standard residue; d: D form. The star is where a group is joined. X1 = O=C(c1ncc(Cl)cc1Cl)*; Dab = NCC[C@H](N)C(=O)O; Abu = CC[C@H](N)C(=O)O; Dap = NC[C@H](N)C(=O)O
# Key:
# [1] = tested on: Acinetobacter baumannii FADDI-AB030; assay: microbe, parasite or virus in culture; format: cell-based; details: FADDI-AB030
# Method in brief: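 Lipopeptide TFA salts tested against the multidrug-resistant clinical isolate by CLSI (M100-S24) broth microdilution in cation-adjusted Mueller-Hinton broth, with polymyxin B sulphate as control; MIC read.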
# A. baumannii FADDI-AB030 = assay: In vivo efficacy in a neutropenic mouse lung infection model; parameters: species or system Acinetobacter baumannii; details: 24 h
# Method: The in vivo efficacy of several compounds was examined in a neutropenic mouse lung infection model against the clinical isolate A. baumannii FADDI-AB030. This Gram-negative isolate is highly multi drug-resistant as illustrated in Table 7.
# FADDI-AB030 was subcultured on nutrient agar plates from the −80° C. stock. One colony of the bacterial strain was dispersed in 10-mL CAMHB and incubated overnight. On day 2, an aliquot (0.2 mL) of overnight culture suspension was dispersed in 20-mL CAMHB and incubated for 1.5-2.5 h for production of early log-phase growth bacterial culture. The bacteria in the early log-phase growth suspension were concentrated by centrifugation (3,220 g for 10 min) and re-suspended in sterile 0.9% saline for inoculation into mice. The bacterial cell concentration (colony forming unit [CFU]/mL) in saline was estimated by determining the optical density (OD) of the suspension at 600 nm, and confirmed by plating the suspension on nutrient agar plates. […]
# Lung infection was produced as follows. […] Bacterial burdens in lungs were determined at 2 h after inoculation (untreated controls) and 24 h later (untreated controls and compound-treated mice). […] The bacterial colonies on the agar plate were counted and the log10 CFU/lung in each mouse was calculated (FIG. 1). […]
# mice = assay: Acute toxicity observed in the mouse lung infection study; format: in vivo; details: up to 180 mg/kg total dose (four times the polymyxin B dose)
# Method: Lung infection was produced as follows. Mice (n=4) were anaesthetised by inhalation of 2% to 5% isoflurane in oxygen and rested in the supine position against a restraining board which was angled at 60-70° from the horizontal. Each mouse was inoculated with 25 μL of bacterial suspension in saline (˜10^6 bacterial cells in early logarithmic growth phase) sprayed directly into the trachea above the carina using a MicroSprayer® Aerosolizer (model IA-1C; Penn-Century, Philadelphia, Pa., USA). After discharge of the bacterial aerosol, mice were held upright on the restraining board for 2 min and then placed on a warm pad for recovery from anaesthesia. Treatment with polymyxin B and Compound 1, 3, 6 and 18 (intraperitoneal injection of dose-fractionated regimens across the daily dose) was initiated 2 h following inoculation. […] This was the highest dose of polymyxin B that could be safely administered without adverse effects, i.e. acute toxicity. Bacterial burdens in lungs were determined at 2 h after inoculation (untreated controls) and 24 h later (untreated controls and compound-treated mice). Animals were euthanised at 24 h by inhalation of overdose isoflurane. The skin on the chest and fore-paws of each animal was thoroughly cleansed with 70% ethanol and Betadine®. […] The bacterial colonies on the agar plate were counted and the log10 CFU/lung in each mouse was calculated (FIG. 1). […]
smiles,measurement,setting,value
CC[C@@H]1NC(=O)[C@@H](CC(C)C)NC(=O)[C@H](CCN)NC(=O)[C@@H](NC(=O)[C@H](CN)NC(=O)[C@@H](NC(=O)[C@H](CCN)NC(=O)c2ncc(Cl)cc2Cl)[C@@H](C)O)CCNC(=O)[C@H]([C@@H](C)O)NC(=O)[C@H](CCN)NC(=O)[C@H](CCN)NC1=O [Compound 1] (X1-[Dab]T[Dap][Dab][Dab][dL][Abu][Dab][Dab]T; lactam 4-C),Minimum inhibitory concentration,[1],1 µg/mL
same,"in vivo antibacterial efficacy (bacterial burden in lung, FIG. 1) compared with polymyxin B at the same dose","A. baumannii FADDI-AB030; 45 mg/kg total, neutropenic mice",improved in vivo antibacterial efficacy
same,bacterial cells in the lung (FIG. 2),A. baumannii FADDI-AB030; total doses of 90 and 180 mg/kg,no longer detectable in the lung
same,acute toxicity,mice,without any observable acute toxicity
